Experimental findings from patent US11771738B2 (Zoetis Services LLC, priority 2018, dated 2023) are described below.

Data set [1] relates to circulating microfilariae. Kind of data set: Heartworm Positive Dog Studies. To be noted: dog, in vivo.
The subject of data set [2] is circulating microfilariae. Particulars: dog, in vivo.

On to “(3S,6R,9S,12R,15S,18R,21S,24R)-6-benzyl-18-(4-(hydroxy(6-methoxypyridin-3-yl)methyl)benzyl)-3,9,15,21-tetraisobutyl-4,10,12,16,22,24-hexamethyl-1,7,13,19-tetraoxa-4,10,16,22-tetraazacyclotetracosan-2,5,8,11,14,17,20,23-octaone [Example 3-9]”, for which, in data set [1], the “% Reduction of MF, Day 0, Post-dose, 2 hours” value is −11%; the “% Reduction of MF, Day 1” value is on record as −28%; the “% Reduction of MF, Day 7” value was −50%; the “Mean MF/mL, Day 0, Post-dose, 2 hours” value is 20,000 MF/mL. For the same substance, in data set [1], the “Mean MF/mL, Day 0 Pre-dose” value is 18,000 MF/mL; the “Mean MF/mL, Day 1” value was 23,000 MF/mL; the “Mean MF/mL, Day 7” value is listed as 25,000 MF/mL. In addition, in data set [1] (po, 3 mg/kg), the “% Reduction of MF, Day 14” value was −22%; the “% Reduction of MF, Day 21” value is reported as −33%; the “Mean MF/mL, Day 14” value was 22,000 MF/mL; the “Mean MF/mL, Day 21” value is listed as 24,000 MF/mL. In addition, the “adverse effects / clinical observations” value in data set [2] is given as “no adverse effects observed”.
